Results as given in PubChem BioAssay AID2060610 (Molecular Pharmacology Branch, DTP, NCI, 2025).
Where “and” joins values, the source holds several entries; their conditions need not be identical. Equal values may be shown once.

System: 616215-338-R-J1-PDC complex spheroids, viability % test/control
Test: Anticancer human tumor 616215-338-R-J1-PDC patient-derived colon adenocarcinoma cell line growth inhibition [CLK]
Conditions: for viability, T/C: stronger effect = lower value
Source text: A high-throughput screen of multi-cell type tumor spheroids was designed to identify active combinations of […] and targeted small molecules. Complex spheroids include a stromal component modeled by human endothelial cells (HUVEC) and fibroblasts modeled by human mesenchymal stem cells (MSCs). The concentration ranges selected for each drug and investigational agent were based upon clinically achievable concentrations if the clinical Cmax of the agent was known.
Compounds. The drugs and investigational agents: cirtuvivint (SM08502; NSC835563), CC-671 (NSC850746), vemurafenib (NSC761431), tapotoclax (NSC804041), sotorasib (NSC818433), adagrasib (NSC831453), MRTX-1133 (NSC836407), BAY2416964 (NSC825713), copanlisib (NSC816437), inavolisib (NSC800729), abemaciclib (NSC768073), osimertinib (NSC779217), entinostat (NSC756642), eltanexor (KPT-8602, NSC794443), venetoclax (NSC766270), ceralasertib (NSC777638), bortezomib (NSC756655), olaparib (NSC753686), talazoparib (NSC767125), alisertib (NSC759677), peposertib (NSC802822), gemcitabine (NSC613327), 5-fluorouracil (NSC19893), SN-38 (NSC673596), oxaliplatin (NSC266046), paclitaxel (NSC125973), and doxorubicin (NSC123127), were obtained from the National Cancer Institute (NCI) Developmental Therapeutics Program Chemical Repository. The FDA-approved anticancer drug set is available from the Developmental Therapeutics Program at https://dtp.cancer.gov/organization/dscb/obtaining/available plates.htm. […] The stock solutions were prepared in dimethyl sulfoxide (DMSO, Sigma-Aldrich, St. Louis, MO, cat. D2650), except for the platinum complexes which were prepared in saline (Quality Biological, Gaithersburg, MD, cat. 114-055-101), at 800-fold the tested concentration and stored at -70 degrees C prior to their use. All drugs and investigational agents were tested over a range starting from a high concentration at or near the clinical Cmax and decreasing in half-log increments. If the clinical Cmax for an agent had not been determined, the highest concentration tested was 10 microM.
Cell Culture. All cells were maintained in an incubator at 37 degrees C and 5% CO2 with 95% humidity. The PDC lines were cultured according to standard operating procedures established by the NCI PDMR. Briefly, all PDCs were thawed and cultured in Matrigel-coated flasks prepared with a working solution of 1X Ham's F-12 nutrient mix, without supplementation (Invitrogen, Waltham, MA, cat. 11765054), 100 U/mL penicillin-streptomycin (Invitrogen, cat. 15140122), and 2.5% Matrigel (Corning Inc., Corning, NY, cat. 354248) for the first three passages. The 947758-054-R-J2-PDC line was cultured in 6B/Colon 1A media, which includes advanced DMEM/F-12 (Thermo Fisher Scientific, cat. 12634028), 10 mM HEPES (Thermo Fisher Scientific, cat. 15630080), 1X GlutaMAX supplement (Thermo Fisher Scientific, cat. 35050061), 0.1 mg/mL primocin (InvivoGen, cat. ant-pm-2), 10% defined fetal bovine serum, heat inactivated (HyClone Laboratories Inc., cat. SH30070.03HI), 1.25 mM N-Acetyl-L-cysteine (Sigma-Aldrich, cat. A9165), 10 mM nicotinamide (Sigma-Aldrich, cat. N0636), 1X B-27 supplement (Thermo Fisher Scientific, cat. 17504044), 1X N-2 supplement (Thermo Fisher Scientific, cat. 17502048), and 10 microM Y-27632 dihydrochloride (Tocris Bioscience, cat. 1254). The 876862-298-R-J1-PDC was cultured in 6E media, which includes all 6B/Colon 1A media components plus 50% L-WRN conditioned media (ATCC, cat. CRL-3276), 50 ng/mL recombinant human EGF recombinant protein (hEGF; Thermo Fisher Scientific, cat. PHG0311), 10 ng/mL recombinant human fibroblast growth factor 10 (hGFG-10; PeproTech, cat. 100-26), 1 ng/mL recombinant human fibroblast growth factor 2 (hFGF-2; PeproTech, cat. 100-18B), and 1 µM prostaglandin E2 (PGE2; Tocris, cat. 2296). The 227483-062-R1-J1-PDC line was cultured in Panc media, containing all 6E components except hFGF-2, with the addition of 500 nM SB-431542 (Selleckchem, cat. S1067) and 10 nM gastrin (Tocris, cat. 3006). […]
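Further: spheroids exposed to agents for 7 days.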
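Wherever viability, T/C is given: 100% = DMSO vehicle wells.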

SMILES: COC1C=CCC(C)C(C)S(=O)(=O)NC(=O)c2ccc3c(c2)N(CC2CCC21)CC1(CCCc2cc(Cl)ccc21)CO3 (stereo not drawn) + CN1CCN(c2cc(C(=O)Nc3cc4cc(-c5cnn(C)c5)ccc4cn3)ccn2)CC1
- IC50 (curve of first compound, second compound 0.0316 µM): 2360 nM
- IC50 (curve of first compound, second compound 0.1 µM): 2870 nM
- IC50 (curve of first compound, second compound 0.316 µM): < 31.6 nM
- IC50 (curve of first compound, second compound 1 µM): < 31.6 nM
- IC50 (curve of first compound, second compound 3.16 µM): < 31.6 nM
- IC50 (curve of first compound, second compound 10 µM): < 31.6 nM
- viability, T/C (second compound 0.0316 µM, first compound 0.0316 µM): 45.7%
- viability, T/C (second compound 0.0316 µM, first compound 0.1 µM): 32.5%
- viability, T/C (second compound 0.0316 µM, first compound 0.316 µM): 111%
- viability, T/C (second compound 0.0316 µM, first compound 1 µM): 106%
- viability, T/C (second compound 0.0316 µM, first compound 3.16 µM): 41.9%
- viability, T/C (second compound 0.0316 µM, first compound 10 µM): 0.01%
- viability, T/C (second compound 0.1 µM, first compound 0.0316 µM): 41.4%
- viability, T/C (second compound 0.1 µM, first compound 0.1 µM): 44.4%
- viability, T/C (second compound 0.1 µM, first compound 0.316 µM): 122%
- viability, T/C (second compound 0.1 µM, first compound 1 µM): 116%
- viability, T/C (second compound 0.1 µM, first compound 3.16 µM): 47.2%
- viability, T/C (second compound 0.1 µM, first compound 10 µM): 0.01%
- viability, T/C (second compound 0.316 µM, first compound 0.0316 µM): 9.08%
- viability, T/C (second compound 0.316 µM, first compound 0.1 µM): 9.53%
- viability, T/C (second compound 0.316 µM, first compound 0.316 µM): 21.3%
- viability, T/C (second compound 0.316 µM, first compound 1 µM): 28.6%
- viability, T/C (second compound 0.316 µM, first compound 3.16 µM): 20%
- viability, T/C (second compound 0.316 µM, first compound 10 µM): 0.01%
- viability, T/C (second compound 1 µM, first compound 0.0316 µM): 0.68%
- viability, T/C (second compound 1 µM, first compound 0.1 µM): 0.08%
- viability, T/C (second compound 1 µM, first compound 0.316 µM): 0.17%
- viability, T/C (second compound 1 µM, first compound 1 µM): 0.14%
- viability, T/C (second compound 1 µM, first compound 3.16 µM): 0.94%
- viability, T/C (second compound 1 µM, first compound 10 µM): 0.01%
- viability, T/C (second compound 3.16 µM, first compound 0.0316 µM): 0.04%
- viability, T/C (second compound 3.16 µM, first compound 0.1 µM): 0.07%
- viability, T/C (second compound 3.16 µM, first compound 0.316 µM): 0.18%
- viability, T/C (second compound 3.16 µM, first compound 1 µM): 0.16%
- viability, T/C (second compound 3.16 µM, first compound 3.16 µM): 0.18%
- viability, T/C (second compound 3.16 µM, first compound 10 µM): 0.01%
- viability, T/C (second compound 10 µM, first compound 0.0316 µM): 0.08%
- viability, T/C (second compound 10 µM, first compound 0.1 µM): 0.09%
- viability, T/C (second compound 10 µM, first compound 0.316 µM): 0.24%
- viability, T/C (second compound 10 µM, first compound 1 µM): 0.27%
- viability, T/C (second compound 10 µM, first compound 3.16 µM): 0.33%
- viability, T/C (second compound 10 µM, first compound 10 µM): 0.01%

SMILES: C#Cc1c(F)ccc2cc(O)cc(-c3ncc4c(N5CC6CCC(C5)N6)nc(OCC56CCCN5CC(F)C6)nc4c3F)c12 (stereo not drawn)
- viability, T/C (compound 0.0316 µM): 95.4% and 102%
- viability, T/C (compound 0.1 µM): 96.2% and 91.8%
- viability, T/C (compound 0.316 µM): 100% and 104%
- viability, T/C (compound 1 µM): 119% and 114%
- viability, T/C (compound 3.16 µM): 133% and 98.2%
- viability, T/C (compound 10 µM): 83.3% and 65.1%
- IC50 (curve of compound): > 10000 nM

SMILES: CCc1c2c(nc3ccc(O)cc13)-c1cc3c(c(=O)n1C2)COC(=O)[C@]3(O)CC
- viability, T/C (compound 0.00316 µM): 110% and 111%
- viability, T/C (compound 0.01 µM): 69.5% and 63.4%
- viability, T/C (compound 0.0316 µM): 36.6% and 33.2%
- viability, T/C (compound 0.1 µM): 17.5% and 24.2%
- viability, T/C (compound 0.316 µM): 11% and 16.1%
- viability, T/C (compound 1 µM): 5.51% and 7.45%
- IC50 (curve of compound): 19.8 nM and 17.4 nM

SMILES: CC(=O)O[C@H]1C(=O)[C@@]2(C)[C@H]([C@H](OC(=O)c3ccccc3)[C@]3(O)C[C@H](OC(=O)[C@H](O)[C@@H](NC(=O)c4ccccc4)c4ccccc4)C(C)=C1C3(C)C)[C@]1(OC(C)=O)CO[C@@H]1C[C@@H]2O
- viability, T/C (compound 0.0316 µM): 32.9% and 37.9%
- viability, T/C (compound 0.1 µM): 22.2% and 31.7%
- viability, T/C (compound 0.316 µM): 18.2% and 24%
- viability, T/C (compound 1 µM): 15.4% and 23.8%
- viability, T/C (compound 3.16 µM): 19.5% and 23.1%
- viability, T/C (compound 10 µM): 24% and 28.7%
- IC50 (curve of compound): < 31.6 nM
